What was measured:
[1] = target: T1, PYR1 (Arabidopsis thaliana, UniProt O49686); test: Yeast two-hybrid wild-type PYR1-HAB1 interaction with added ABA; type: cell-based; conditions: wild-type PYR1, 10 μM ABA
T1 construct: expressed in transfected cells; host or cells: S. cerevisiae strain Y190
T1 sequence (O49686 1-191): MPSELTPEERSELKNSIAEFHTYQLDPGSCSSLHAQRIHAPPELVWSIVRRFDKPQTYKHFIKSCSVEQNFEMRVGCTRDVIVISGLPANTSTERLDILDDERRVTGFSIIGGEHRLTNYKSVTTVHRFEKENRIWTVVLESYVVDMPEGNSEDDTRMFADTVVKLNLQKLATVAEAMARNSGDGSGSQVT
T1 sequence (Q9CAJ0 23-511 partner): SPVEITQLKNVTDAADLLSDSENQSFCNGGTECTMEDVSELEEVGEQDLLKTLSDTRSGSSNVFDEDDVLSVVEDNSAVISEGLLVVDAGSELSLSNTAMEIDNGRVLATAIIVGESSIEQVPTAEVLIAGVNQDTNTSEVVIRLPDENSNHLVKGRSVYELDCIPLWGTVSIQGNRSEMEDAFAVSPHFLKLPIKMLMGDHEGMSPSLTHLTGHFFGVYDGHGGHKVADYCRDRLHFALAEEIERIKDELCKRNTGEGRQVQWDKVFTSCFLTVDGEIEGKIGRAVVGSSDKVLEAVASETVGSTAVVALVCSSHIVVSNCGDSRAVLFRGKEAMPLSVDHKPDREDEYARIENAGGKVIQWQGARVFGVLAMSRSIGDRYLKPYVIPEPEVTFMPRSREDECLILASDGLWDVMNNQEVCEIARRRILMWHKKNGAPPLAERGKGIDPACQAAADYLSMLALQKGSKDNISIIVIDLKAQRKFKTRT
Method: 29 of 741 PYR1 mutants constructed, located in 10 different residues, increase the interaction between PYR1 and HAB1 in the absence of ABA, as measured using the yeast two hybrid assay (upper left panel). […] Each graph includes control wild-type PYR1 protein tested in the absence (diamonds) and presence (squares) of 10 μM ABA. Specific mutant proteins (triangles) were tested in the absence of ABA. […] Plotted in each graph is PP2C activity, expressed as % of control, which is the PP2C activity measured in the absence of ABA or receptor protein.
To define sites that can be mutated to improve interactions between PYR/PYL receptors and PP2Cs, we conducted saturation mutagenesis on 39 residues in PYR1 that normally contact ABA (i.e., are within the ligand-binding pocket of PYR1) and/or PP2Cs (i.e., are within the PP2C binding interface). All 741 single-mutant variants possible at these functionally critical locations were constructed and then assayed for PP2C interactions using a yeast two-hybrid based assay. Saturation mutagenesis is a method that involves the construction of all possible amino acid variants at a given site (i.e., the generation of all 19 substitution mutants per site). […]

[2] = target: T2, PYL2 (Arabidopsis thaliana, UniProt O80992); conditions: cited from earlier work
T2 sequence (O80992 1-190): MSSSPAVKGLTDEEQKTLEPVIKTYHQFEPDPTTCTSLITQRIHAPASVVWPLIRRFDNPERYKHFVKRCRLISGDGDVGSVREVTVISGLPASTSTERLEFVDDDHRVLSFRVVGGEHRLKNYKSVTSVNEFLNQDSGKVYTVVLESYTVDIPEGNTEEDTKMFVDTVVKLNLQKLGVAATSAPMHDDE

[3] = target: T3, PYL1 (Arabidopsis thaliana, UniProt Q8VZS8); conditions: cited from earlier work
T3 sequence (Q8VZS8 1-221): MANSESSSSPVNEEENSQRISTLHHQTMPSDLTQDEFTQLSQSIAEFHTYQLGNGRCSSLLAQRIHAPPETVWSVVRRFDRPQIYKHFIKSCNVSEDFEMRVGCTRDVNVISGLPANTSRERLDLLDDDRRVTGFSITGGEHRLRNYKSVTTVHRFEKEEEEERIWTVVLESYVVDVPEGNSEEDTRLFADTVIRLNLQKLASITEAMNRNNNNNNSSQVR

[4] = target: T4, PYR1 (Arabidopsis thaliana, UniProt O49686); conditions: cited from earlier work
T4 sequence (O49686 1-191): T1 sequence (O49686 1-191)

[5] = target: T5, PYL5 (Arabidopsis thaliana, UniProt Q9FLB1); conditions: cited from earlier work
T5 sequence (Q9FLB1 1-203): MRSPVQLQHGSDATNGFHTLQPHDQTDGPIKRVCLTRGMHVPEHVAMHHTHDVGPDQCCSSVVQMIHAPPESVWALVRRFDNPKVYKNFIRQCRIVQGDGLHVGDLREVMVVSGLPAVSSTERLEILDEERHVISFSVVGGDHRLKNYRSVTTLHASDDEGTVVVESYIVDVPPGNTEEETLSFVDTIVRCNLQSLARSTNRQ

[6] = tested on: ABA-responsive gene transcription; conditions: in vivo; cited from earlier work
[7] = target: T6, HAB1 (Arabidopsis thaliana, UniProt Q9CAJ0); test: Yeast two-hybrid PYR1 mutant-HAB1 interaction assay (X-gal staining) in the absence of ABA; type: cell-based; conditions: no ABA
T6 construct: expressed in transfected cells; host or cells: S. cerevisiae strain Y190
T6 sequence (Q9CAJ0 1-511): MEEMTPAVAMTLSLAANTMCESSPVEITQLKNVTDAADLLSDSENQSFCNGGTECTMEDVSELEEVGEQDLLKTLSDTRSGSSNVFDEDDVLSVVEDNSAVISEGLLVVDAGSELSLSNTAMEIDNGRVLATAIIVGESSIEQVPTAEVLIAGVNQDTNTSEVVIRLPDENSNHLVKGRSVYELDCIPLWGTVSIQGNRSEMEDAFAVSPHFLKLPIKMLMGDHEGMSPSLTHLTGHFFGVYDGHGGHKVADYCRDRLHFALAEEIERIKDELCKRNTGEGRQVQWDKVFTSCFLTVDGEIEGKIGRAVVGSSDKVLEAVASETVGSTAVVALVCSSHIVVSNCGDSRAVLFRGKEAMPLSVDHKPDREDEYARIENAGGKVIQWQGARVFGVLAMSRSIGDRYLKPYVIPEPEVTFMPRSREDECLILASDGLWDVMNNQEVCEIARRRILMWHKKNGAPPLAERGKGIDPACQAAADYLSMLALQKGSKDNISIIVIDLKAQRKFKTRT
Text: To define sites that can be mutated to improve interactions between PYR/PYL receptors and PP2Cs, we conducted saturation mutagenesis on 39 residues in PYR1 that normally contact ABA (i.e., are within the ligand-binding pocket of PYR1) and/or PP2Cs (i.e., are within the PP2C binding interface). All 741 single-mutant variants possible at these functionally critical locations were constructed and then assayed for PP2C interactions using a yeast two-hybrid based assay. Saturation mutagenesis is a method that involves the construction of all possible amino acid variants at a given site (i.e., the generation of all 19 substitution mutants per site). We focused mutagenesis efforts on PYR1 because it is a well-characterized member of the PYR/PYL receptor family and has extensive structural data on which to guide mutagenesis studies, although it should be noted that the sites targeted display high sequence conservation among the PYR/PYL receptors (FIG. 1). Moreover, PYR1 is well suited for functional studies because its low basal activity allows its activation status to be studied using a yeast-based two-hybrid assay in which wild-type PYR1 will only bind to the PP2C HAB1 (or other PP2Cs) when the appropriate yeast cells are grown in the presence of ABA. […]

[8] = tested on: aba2-1 mutant seeds; test: Germination of aba2-1 background seeds on paclobutrazol or NaCl; type: in vivo, Arabidopsis; conditions: 35S-driven transgene, germination 72 hours
Text: As a further test of the ability of PYL2^CA3 to activate ABA signaling in vivo, we examined the ability of this allele to revert phenotypes caused by ABA deficiency, reasoning that effective activation of the ABA pathway should suppress phenotypes observed in the aba2 mutant. […] To test this, we examined the germination of various genotypes on paclobutrazol, an inhibitor of GA biosynthesis. Wild-type seed germination is blocked by paclobutrazol treatment but aba2 mutants germinate due to defects in ABA-induced seed dormancy. We also examined the germination of various genotypes in the presence of NaCl, which, like paclobutrazole, inhibits seed germination in an ABA- and aba2-dependent manner (Gonzalez-Guzman M. et al. (2002) Plant Cell 14(8):1833-1846; Leon-Kloosterziel K M, et al. (1996) Plant J 10 (4):655-661). […] Thus, expression of PYL2^CA3 in developing seeds is sufficient to activate an ABA-dependent physiological process despite the depleted ABA levels present in the aba2 background.
Germination tests on paclobutrazol (Wako Chemicals, Japan) and NaCl were conducted as following. Columbia, aba2-1, aba2-1; 35S::GFP-PYL2 and aba2-1; 35S::GFP-PYL2″^3 seeds were surface sterilized and plated onto ⅓ MS agar media containing 25, 50 or 100 μM paclobutrazol or 0, 50, 200, 250 mM NaCl. Control wells contained ⅓ MS agar and 0.1% DMSO, the carrier solvent for paclobutrazol. The seeds were stratified for four days in darkness and then transferred to continuous illumination at room temperature (23° C.). Germination was assayed after 72 hours; seeds showing radicals at least ½ seed length or greater were scored as positive. Each experiment was performed in triplicate; experiments were performed on seeds that were ˜6-months post-harvest.

[9] = tested on: Columbia seeds; test: Seed dormancy / germination assay of 35S-driven transgenic lines, stratified vs unstratified; type: in vivo, Arabidopsis; conditions: 35S-driven overexpression in wild-type Columbia background
Method: To investigate the effects of the PYL2^CA3 allele, we performed a number of physiological assays on wild-type and aba2-1 genotypes. Columbia (Col), 35S::PYL2, and 35S::PYL2^CA3 seed samples were divided into two portions; one portion was stratified on ⅓ MS plates for 6 days at 4° C. and the second portion was plated six days later ⅓ MS plates. Both samples were the transferred to room temperature (23° C.) and incubated in darkness. […] Each experiment was performed in triplicate and each point plotted represents the average of tests conducted using 40 to 70 seeds. […] Thus, overexpression of PYL2^CA3 activates the ABA-regulated seed dormancy pathway.
In order to assay dormancy of seeds for Columbia, 35S::GFP-PYL2, and 35S::GFP-PYL2^CA3 were divided into two portions and surface sterilized using chlorine gas (prepared in situ using bleach and HCl). One portion was stratified on ⅓ MS agar plates for 6 days at 4° C. in darkness and the second portion, which was maintained at room temperature, was seeded six days later on the ⅓ MS agar plates; both samples were transferred to a 23° C. light-tight growth chamber and germination scored at 24 hour periods. The homozygous 35S::GFP-PYL2 and 35S::GFP-[…] seeds used in these experiments were ˜5- and ˜6-months post-harvest respectively at the time of the experiment shown in FIG. 12.

With `CC1=CC(=O)CC(C)(C)[C@@]1(O)/C=C/C(C)=C\C(=O)O` [ABA, Abscisic acid] the “interaction between PYR1 and HAB1” value [1] was “promotes a strong interaction”.

In the case of `O=S(=O)(NCc1ccccn1)c1ccc(Br)c2ccccc12` [pyrabactin], the “activity on PYL2” value [2] is given as “weak partial-agonist/antagonist activity”, the “agonist activity on PYL1” value [3] is given as “strong agonist activity” and the “agonist activity on PYR1” value [4] is given as “strong agonist activity”. The “activity on PYL5” value [5] was “weak partial-agonist/antagonist activity” and the “ABA-responsive gene transcription in seeds” value [6] was “essentially activates the full complement of ABA-responsive gene transcription in seeds”.

In the case of “PYR1: wild-type Arabidopsis ABA receptor PYR1 (SEQ ID NO:1)”, the “PYR1-HAB1 interaction in the absence of added ABA” value [7] is reported as “does not bind HAB1”.

B1: PYL2: wild-type ABA receptor PYL2 (SEQ ID NO:3), overexpressed as control (protein, listed as Arabidopsis thaliana)
chain: T2 sequence (O80992 1-190)
modifications: thale cress PYR/PYL receptor, abscisic acid receptor PYL2, PYR1-like protein 2 (PYL2), ABI1-binding protein 6 (ABIP6), regulatory components of ABA receptor 14 (RCAR14), Bet v I allergen family protein, At2g26040, T19L18.15
In the case of B1, the “NaCl resistance of aba2 mutant seed germination” value [8] is reported as “unable to suppress”, the “paclobutrazol resistance of aba2 mutant seed germination” value [8] is reported as “unable to suppress” and the “seed hyperdormancy (stratification dependent germination)” value [9] is reported as “not”.

Reference: patent US10704056B2, “Constitutively active ABA receptor mutants” (The Regents of the University of California, priority 2011, dated 2020)
